Reference: patent publication EP4104902B1, “COMPOUNDS AND M[…] SAME” (priority 2020, dated 2021)
pIC50: −log10 of the molar value.

system: recombinant rabies virus 1088 strain expressing Gaussia Luciferase (GLuc) (1088/GLuc); format: cell-based; settings: read-out: Anti-rabies activity

| Structure (SMILES) | pIC50 |
| --- | --- |
| O=C(NCc1ccccc1)[C@@]12C[C@@H]3CN(CCc4ccccc4)[C@@H]([C@@H]3CN1)[C@H]2Cc1ccc(O)cc1 (relative stereo) [IF-640] | 4.52 to 5.00 |
| NC(=O)CN1C[C@@H]2C[C@H]3CN[C@]2(C(=O)NCCc2ccccc2)[C@@H]1[C@@H]3Cc1cccc2ccccc12 (relative stereo) [IB-97] | > 5.30 |
| NC(=O)CCNC(=O)[C@]12NC[C@@H]3C[C@H]1CN(CC1CCCCC1)[C@H]2[C@@H]3Cc1ccccc1 (relative stereo) [IB-637] | > 5.30 |
| CC(C)CC[C@@H]1[C@@H]2CN[C@@]3(C(=O)NCc4ccc(O)cc4)[C@@H](C2)CN(CC(C)C)[C@@H]13 (relative stereo) [IB-465] | 4.52 to 5.00 |
| N=C(N)NCCCNC(=O)[C@@]12C[C@@H]3CN(Cc4cccc5ccccc45)[C@@H]([C@@H]3CN1)[C@H]2Cc1cccc2ccccc12 (relative stereo) [IF-390] | 4.52 to 5.00 |
| O=C(NCc1cccc2ccccc12)[C@@]12C[C@@H]3CN(CCO)[C@@H]([C@@H]3CN1)[C@H]2Cc1ccccc1 (relative stereo) [IF-758] | > 5.30 |
| NC(=O)CN1C[C@H]2C[C@]3(C(=O)NCc4cccc5ccccc45)NC[C@H]2[C@H]1[C@H]3Cc1ccccc1 (relative stereo) [IF-82] | 4.52 to 5.00 |
| O=C(NCc1ccc(O)cc1)[C@@]12C[C@@H]3CN(Cc4ccccc4)[C@@H]([C@@H]3CN1)[C@H]2Cc1ccccc1 (relative stereo) [IF-494] | 4.52 to 5.00 |
| CC(C)CCNC(=O)[C@]12NC[C@@H]3C[C@H]1CN(CC(C)C)[C@H]2[C@@H]3CCCNC(=N)N (relative stereo) [IB-192] | > 5.30 |
| O=C(NCc1ccccc1)[C@]12NC[C@@H]3C[C@H]1CN(CCO)[C@H]2[C@@H]3CCc1ccccc1 (relative stereo) [IB-618] | > 5.30 |
| N=C(N)NCCCNC(=O)[C@]12NC[C@@H]3C[C@H]1CN(Cc1ccccc1)[C@H]2[C@@H]3Cc1cccc2ccccc12 (relative stereo) [IB-280] | 4.52 to 5.00 |
| CC(C)C[C@@H]1[C@@H]2CN[C@@]3(C(=O)NCc4cccc5ccccc45)[C@@H](C2)CN(CCO)[C@@H]13 (relative stereo) [IB-585] | 4.52 to 5.00 |
| CC(C)C[C@@H]1[C@@H]2[C@@H]3CN[C@@]1(C(=O)NCCc1ccccc1)C[C@@H]3CN2CC(C)C (relative stereo) [IF-725] | 4.52 to 5.00 |
| CC(C)CCN1C[C@H]2C[C@]3(C(=O)NCc4ccc(F)cc4)NC[C@H]2[C@H]1[C@H]3Cc1ccccc1 (relative stereo) [IF-547] | > 5.30 |
| N=C(N)NCCC[C@@H]1[C@@H]2CN[C@@]3(C(=O)NCc4ccc(F)cc4)[C@@H](C2)CN(Cc2ccccc2)[C@@H]13 (relative stereo) [IB-250] | 4.52 to 5.00 |
| Cc1cccc(C[C@@H]2[C@@H]3CN[C@@]4(C(=O)NCc5ccccc5)[C@@H](C3)CN(CC(C)C)[C@@H]24)c1 (relative stereo) [IB-13] | 4.52 to 5.00 |
| CC(C)CC[C@@H]1[C@@H]2CN[C@@]3(C(=O)NCc4ccc(O)cc4)[C@@H](C2)CN(Cc2ccc(F)cc2)[C@@H]13 (relative stereo) [IB-582] | 4.52 to 5.00 |
| CC(C)NC(=O)C12NCC3CC1CN(Cc1ccc(O)cc1)C2C3Cc1cccc2ccccc12 (stereo not shown) [IB-502] | > 5.30 |
| CC(C)CCC1C2CNC3(C(=O)NCc4ccc(O)cc4)C(C2)CN(CCC(=O)O)C13 (stereo not shown) [IB-402] | 4.52 to 5.00 |
| O=C(NCc1ccc(O)cc1)[C@]12NC[C@@H]3C[C@H]1CN(CCO)[C@H]2[C@@H]3Cc1cccc2ccccc12 (relative stereo) [IB-470] | 4.52 to 5.00 |

| Structure (SMILES) | pIC50 |
| --- | --- |
| CC(C)CCNC(=O)[C@@]12C[C@@H]3CN(CC4CCCCC4)[C@@H]([C@@H]3CN1)[C@H]2CC(C)C (relative stereo) [IF-659] | 4.52 to 5.00 |
| CC(C)CC[C@@H]1[C@@H]2[C@@H]3CN[C@@]1(C(=O)NCC(C)C)C[C@@H]3CN2CC(C)C (relative stereo) [IF-412] | > 5.30 |
| CC(C)CCNC(=O)[C@]12NC[C@@H]3C[C@H]1CN(CC(C)C)[C@H]2[C@@H]3CCc1ccccc1 (relative stereo) [IB-688] | > 5.30 |
| NC(=O)CCNC(=O)C12NCC3CC1CN(Cc1ccc(F)cc1)C2C3Cc1ccccc1 (stereo not shown) [IB-712] | > 5.30 |
| CC(C)CCNC(=O)[C@@]12C[C@@H]3CN(CC(C)C)[C@@H]([C@@H]3CN1)[C@H]2CCc1ccccc1 (relative stereo) [IF-673] | > 5.30 |
| O=C(NCCO)[C@@]12C[C@@H]3CN(Cc4ccc(F)cc4)[C@@H]([C@@H]3CN1)[C@H]2Cc1cccc2ccccc12 (relative stereo) [IF-620] | > 5.30 |
| NC(=O)CN1C[C@H]2C[C@]3(C(=O)NCc4ccc(O)cc4)NC[C@H]2[C@H]1[C@H]3Cc1cccc2ccccc12 (relative stereo) [IF-137] | > 5.30 |
| CC(C)CCNC(=O)[C@]12NC[C@@H]3C[C@H]1CN(CC(N)=O)[C@H]2[C@@H]3Cc1cccc2ccccc12 (relative stereo) [IB-103] | 4.52 to 5.00 |
| CC(C)CCN1CC2CC3CNC2(C(=O)NCc2ccc(F)cc2)C1C3CCC(=O)O (stereo not shown) [IB-386] | 4.52 to 5.00 |
| COc1ccc(CN2CC3CC4C=NC3(C(=O)NCc3ccccc3)C2C4CC(C)C)cc1 (stereo not shown) [IIB-85] | 5.00 to 5.30 |
| O=C(NCc1cccc2ccccc12)[C@]12NC[C@@H]3C[C@H]1CN(CCO)[C@H]2[C@@H]3Cc1ccc(O)cc1 (relative stereo) [IB-527] | 4.52 to 5.00 |
| N=C(N)NCCCNC(=O)[C@@]12C[C@@H]3CN(Cc4cccc5ccccc45)[C@@H]([C@@H]3CN1)[C@H]2CCc1ccccc1 (relative stereo) [IF-389] | > 5.30 |
| CC(C)CNC(=O)[C@@]12C[C@@H]3CN(CC4CCCCC4)[C@@H]([C@@H]3CN1)[C@H]2CC(C)C (relative stereo) [IF-742] | 4.52 to 5.00 |
| O=C(NCCc1ccccc1)C12CC3CN(CC4CCCCC4)C(C3CN1)C2Cc1ccc(O)cc1 (stereo not shown) [IF-439] | > 5.30 |
| NC(=O)C[C@@H]1[C@@H]2[C@@H]3CN[C@@]1(C(=O)NCc1ccccc1)C[C@@H]3CN2CC1CCCCC1 (relative stereo) [IF-246] | 4.52 to 5.00 |
| Cc1ccc(CN2CC3CC4CN(C(=O)CC(C)C)C3(C(=O)NCc3ccccc3)C2C4CC(C)C)cc1 (stereo not shown) [IB-883] | > 5.30 |
| CCN1C[C@@H]2[C@H]3CN(CC(C)C)[C@@H]2[C@@H](Cc2ccccc2)[C@]1(C(=O)NCc1ccccc1)C3 (relative stereo) [IF-69] | 4.52 to 5.00 |
| CC(C)C[C@@H]1[C@@H]2[C@@H]3CN[C@@]1(C(=O)NCc1cccc4ccccc14)C[C@@H]3CN2CC(N)=O (relative stereo) [IF-81] | 4.52 to 5.00 |
| CC(C)CCC1C2CNC3(C(=O)NCc4ccc(F)cc4)C(C2)CN(CCC(=O)O)C13 (stereo not shown) [IB-399] | 4.52 to 5.00 |
| O=C(NCc1ccccc1)[C@]12NC[C@H]3C[C@H]1CN(Cc1cccc4ccccc14)[C@H]2[C@@H]3Cc1ccccc1 (relative stereo) [IB-42, (3S*,3aS*,6S*,7R*,7aS*)-N,7-dibenzyl-1-(naphthalen-1-ylmethyl)octahydro-3aH-3,6-methanopyrrolo[3,2-b]pyridine-3a-carboxamide] | 4.52 to 5.00 |

| Structure (SMILES) | pIC50 |
| --- | --- |
| O=C(O)CCNC(=O)C12CC3CN(CCO)C(C3CN1)C2Cc1cccc2ccccc12 (stereo not shown) [IF-444] | 4.52 to 5.00 |
| CC(C)CC[C@@H]1[C@@H]2CN[C@@]3(C(=O)NCCO)[C@@H](C2)CN(Cc2ccccc2)[C@@H]13 (relative stereo) [IB-680] | 4.52 to 5.00 |
| O=C(NCc1ccc(F)cc1)C12NCC3CC1CN(CCO)C2C3Cc1cccc2ccccc12 (stereo not shown) [IB-831] | > 5.30 |
| Cc1cccc(C[C@@H]2[C@@H]3[C@@H]4CN[C@@]2(C(=O)NCc2ccccc2)C[C@@H]4CN3CC(C)C)c1 (relative stereo) [IF-13] | 4.52 to 5.00 |
| NC(=O)CCNC(=O)[C@@]12C[C@@H]3CN(Cc4ccc(F)cc4)[C@@H]([C@@H]3CN1)[C@H]2Cc1cccc2ccccc12 (relative stereo) [IF-539] | > 5.30 |
| CC(C)CNC(=O)[C@@]12C[C@@H]3CN(Cc4ccc(F)cc4)[C@@H]([C@@H]3CN1)[C@H]2Cc1ccccc1 (relative stereo) [IF-653] | 4.52 to 5.00 |
| CC(C)CCNC(=O)[C@@]12C[C@@H]3CN(CC4CCCCC4)[C@@H]([C@@H]3CN1)[C@H]2Cc1ccc(O)cc1 (relative stereo) [IF-709] | 4.52 to 5.00 |
| CC(C)CCN1CC2CC3CNC2(C(=O)NCc2ccccc2)C1C3CCC(=O)O (stereo not shown) [IB-505] | 4.52 to 5.00 |
| Cc1ccc(CN2CC3CC4CN(C(=O)OCC(C)C)C3(C(=O)NCc3ccccc3)C2C4CC(C)C)cc1 (stereo not shown) [IB-886] | 5.00 to 5.30 |
| CC(C)CCNC(=O)[C@@]12C[C@@H]3CN(CCO)[C@@H]([C@@H]3CN1)[C@H]2Cc1cccc2ccccc12 (relative stereo) [IF-660] | 4.52 to 5.00 |
| CC(C)CC[C@@H]1[C@@H]2[C@@H]3CN[C@@]1(C(=O)NCc1ccccc1)C[C@@H]3CN2CC(C)C (relative stereo) [IF-675] | > 5.30 |
| CCOc1ccc(CN2CC3CC4(C(=O)NCc5ccccc5)N=CC3C2C4CC(C)C)cc1 (stereo not shown) [IIF-97] | 4.52 to 5.00 |
| O=C(NCCO)[C@]12NC[C@@H]3C[C@H]1CN(Cc1cccc4ccccc14)[C@H]2[C@@H]3Cc1ccc(O)cc1 (relative stereo) [IB-459] | 4.52 to 5.00 |
| CC(C)C[C@@H]1[C@@H]2CN[C@@]3(C(=O)NCc4cccc5ccccc45)[C@@H](C2)CN(Cc2ccc(O)cc2)[C@@H]13 (relative stereo) [IB-541] | > 5.30 |
| CC(C)NC(=O)[C@@]12C[C@@H]3CN(Cc4ccc(O)cc4)[C@@H]([C@@H]3CN1)[C@H]2Cc1cccc2ccccc12 (relative stereo) [IF-504] | 4.52 to 5.00 |
| N=C(N)NCCCNC(=O)[C@]12NC[C@@H]3C[C@H]1CN(Cc1cccc4ccccc14)[C@H]2[C@@H]3CCc1ccccc1 (relative stereo) [IB-354] | > 5.30 |
| NC(=O)CCNC(=O)C12NCC3CC1CN(CC1CCCCC1)C2C3CCc1ccccc1 (stereo not shown) [IB-710] | > 5.30 |
| CC(C)NC(=O)[C@@]12C[C@@H]3CN(Cc4cccc5ccccc45)[C@@H]([C@@H]3CN1)[C@H]2CCCNC(=N)N (relative stereo) [IF-244] | > 5.30 |
| CC(C)CC[C@@H]1[C@@H]2[C@@H]3CN[C@@]1(C(=O)NCc1ccc(O)cc1)C[C@@H]3CN2CC1CCCCC1 (relative stereo) [IF-474] | > 5.30 |
| Cc1ccc(C[C@@H]2[C@@H]3[C@@H]4CN[C@@]2(C(=O)NCc2ccccc2)C[C@@H]4CN3CC(C)C)cc1 (relative stereo) [IF-14] | 4.52 to 5.00 |

same assay, conditions: read-out: IC50

| Structure (SMILES) | pIC50 |
| --- | --- |
| Cc1cccc(C[C@@H]2[C@@H]3CN[C@@]4(C(=O)NCc5ccccc5)[C@@H](C3)CN(CC(C)C)[C@@H]24)c1 (relative stereo) [IB-13] | 4.84 |
| CCN1C[C@@H]2[C@H]3CN(CC(C)C)[C@@H]2[C@@H](Cc2ccccc2)[C@]1(C(=O)NCc1ccccc1)C3 (relative stereo) [IF-69] | 4.78 |
| Cc1cccc(C[C@@H]2[C@@H]3[C@@H]4CN[C@@]2(C(=O)NCc2ccccc2)C[C@@H]4CN3CC(C)C)c1 (relative stereo) [IF-13] | 4.88 |
| Cc1ccc(C[C@@H]2[C@@H]3[C@@H]4CN[C@@]2(C(=O)NCc2ccccc2)C[C@@H]4CN3CC(C)C)cc1 (relative stereo) [IF-14] | 4.85 |
